According to patent US8865763B2, “Methods and compositions for altering cell function” (Alltech, Inc., priority 2005, dated 2014):

What was measured:
[1] = Hen Brain Se Concentration; assay type: in vivo, White-Egg-Laying Hens; details: hens; diet with 0.3 ppm Se from the source
Protocol: (§1) Compositions and methods of the present invention were utilized to evaluate the effects of various Se sources on the accumulation of brain Se concentrations in hens and their offspring.
(§2) The study was conducted at the Coldstream Research Facility from Jun. 28, 2004 until Nov. 16, 2004. Six dietary treatments were fed to a total of 48 hens (r=8) that were bred on three consecutive days starting on Sep. 16, 2004.
(§3) • Basal (no added Se) • Selenite (0.3 ppm) • Sel Plex (0.3 ppm) • Tepsel (0.3 ppm) • Se 2000 (0.3 ppm) • Selenosource (0.3 ppm)
(§4) Chicks that hatched were divided into two groups. Half of the chicks were killed for brain collection and the remaining chicks were allowed to grow for 14 days on a Se deficient diet, at which time they were terminated for brain collection. Hen brains were analyzed for Se content individually, whereas the chick brains were homogenized and pooled because of small sample size.
(§5) Brain Se concentrations for the hens and chicks are shown in Tables 4 and 5, below, respectively. The Selenosource value represents only one hen brain analyzed and therefore was not included in the statistical analysis.

[2] = Chick Brain Se Concentration at day 14; assay type: in vivo, chicks (offspring of treated hens); details: offspring of hens fed 0.3 ppm Se; chicks 14 days on Se deficient diet; pooled brains
Protocol: as §1, §2, §3, §4, §5

Gst zeta 1 (Gstz1) = test: Microarray gene expression, mouse cerebral cortex: Gstz1; assay type: in vivo; details: diet 1 ppm Se, vs Se-deficient animals, * significant
Excerpt: (§6) Animal Care. Male C57BL/6J mice were housed singly and started on the experimental diets described below immediately after weaning (21 days of age). The mice were maintained in the Shared Aging Rodent Facility at the William S. Middleton Memorial Veterans Administration Medical Center (Madison, Wis.). Temperature and humidity were maintained at constant levels. Room light was controlled to provide 12-hr cycles of light and dark.
(§7) Experimental diets were created by Harlan Teklad (Madison, Wis.). Selenium content of the diets was determined by Covance Inc. (Madison, Wis.). Five (5) animals were included in each of the following treatment groups: a diet deficient in selenium (SD); a diet supplemented with selenomethionine (SM, obtained from Sigma, St. Louis, Mo.) such that the final selenium content of the diet was one (1) part per million; a diet supplemented with sodium selenite (SS, Sigma) such that the final concentration of selenium in this diet was one (1) part per million; or a diet supplemented with the yeast selenium SEL-PLEX (SP, Alltech, Lexington, Ky.), such that the final concentration of selenium in this diet was one (1) part per million. SEL-PLEX. […]
(§8) Tissue sample preparation and microarray analysis. […] For intestinal expression studies, the intestine was flushed twice with saline solution and small intestine was measured and divided in three equal segments. […]

[3] = tested on: Glutathione S-transferase, mu3 (Gstm3); test: Microarray gene expression, mouse intestine: Gstm3; assay type: in vivo; details: diet 1 ppm Se, vs Se-deficient diets, negative = down
Excerpt: as §6, §7, §8

[4] = tested on: Complement component 1, q subcomponent binding protein, C1qbp; test: Microarray gene expression, mouse cerebral cortex: C1qbp; assay type: in vivo; details: diet 1 ppm Se, vs selenium deficient, * p<0.01
Excerpt: as §6, §7, §8

[5] = tested on: Glutathione S-transferase, mu1 (Gstm1); test: Microarray gene expression, mouse intestine: Gstm1; assay type: in vivo; details: diet 1 ppm Se, vs Se-deficient diets, negative = down
Excerpt: as §6, §7, §8

SelR (Selenoprotein X1) = test: Microarray gene expression, mouse intestine: SelR; assay type: in vivo; details: diet 1 ppm Se, vs selenium deficient
Excerpt: as §6, §7, §8

Glutathione Peroxidase 3 = test: Microarray gene expression, mouse intestine: Glutathione Peroxidase 3; assay type: in vivo; details: diet 1 ppm Se, vs selenium deficient, all p < 0.01
Excerpt: as §6, §7, §8

[6] = tested on: Glutathione S-transferase, alpha 3 (Gsta3); test: Microarray gene expression, mouse intestine: Gsta3; assay type: in vivo; details: diet 1 ppm Se, vs Se-deficient diets, negative = down
Excerpt: as §6, §7, §8

Presenilin 1 = test: Microarray gene expression, mouse cerebral cortex: Presenilin 1; assay type: in vivo; details: diet 1 ppm Se, vs Se-deficient animals, * P < 0.01
Excerpt: as §6, §7, §8

[7] = tested on: Glutathione S-transferase, mu2 (Gstm2); test: Microarray gene expression, mouse intestine: Gstm2; assay type: in vivo; details: diet 1 ppm Se, vs Se-deficient diets, negative = down
Excerpt: as §6, §7, §8

[8] = tested on: Amyloid beta (A4) precursor-like protein (Aplp 1); test: Microarray gene expression, mouse cerebral cortex: Aplp 1; assay type: in vivo; details: diet 1 ppm Se, vs Se-deficient animals, * P < 0.01
Excerpt: as §6, §7, §8

Gst pi 1 (Gstp1) = test: Microarray gene expression, mouse cerebral cortex: Gstp1; assay type: in vivo; details: diet 1 ppm Se, vs Se-deficient animals, * significant
Excerpt: as §6, §7, §8

Cathepsin Z = test: Microarray gene expression, mouse cerebral cortex: Cathepsin Z; assay type: in vivo; details: diet 1 ppm Se, vs Se-deficient mice, * significant
Excerpt: as §6, §7, §8

Cathepsin D = test: Microarray gene expression, mouse cerebral cortex: Cathepsin D; assay type: in vivo; details: diet 1 ppm Se, vs Se-deficient mice, * significant
Excerpt: as §6, §7, §8

Junb = test: Microarray gene expression, mouse cerebral cortex: Junb; assay type: in vivo; details: diet 1 ppm Se, vs Se-deficient animals, * significant
Excerpt: as §6, §7, §8

Glutathione Peroxidase 1 = test: Microarray gene expression, mouse intestine: Glutathione Peroxidase 1; assay type: in vivo; details: diet 1 ppm Se, vs selenium deficient, all p < 0.01
Excerpt: as §6, §7, §8

Nicastrin = test: Microarray gene expression, mouse cerebral cortex: Nicastrin; assay type: in vivo; details: diet 1 ppm Se, vs Se-deficient animals, * P < 0.01
Excerpt: as §6, §7, §8

[9] = tested on: Amyloid beta (A4) precursor protein-binding, family A, member 1(Apba1); test: Microarray gene expression, mouse cerebral cortex: Apba1; assay type: in vivo; details: diet 1 ppm Se, vs Se-deficient animals, * P < 0.01
Excerpt: as §6, §7, §8

[10] = tested on: Amyloid beta (A4) precursor protein-binding, family B, member 1 (Apbb1 or Fe65); test: Microarray gene expression, mouse cerebral cortex: Apbb1/Fe65; assay type: in vivo; details: diet 1 ppm Se, vs Se-deficient animals, * P < 0.01
Excerpt: as §6, §7, §8

[11] = tested on: Complement component 1, r subcomponent, C1r; test: Microarray gene expression, mouse cerebral cortex: C1r; assay type: in vivo; details: diet 1 ppm Se, vs selenium deficient, * p<0.01
Excerpt: as §6, §7, §8

[12] = tested on: Complement component 1, q subcomponent, gamma polypeptide, C1qg; test: Microarray gene expression, mouse cerebral cortex: C1qg; assay type: in vivo; details: diet 1 ppm Se, vs selenium deficient, * p<0.01
Excerpt: as §6, §7, §8

[13] = tested on: Cu chaperone for SOD (CCS); test: Microarray gene expression, mouse intestine: CCS; assay type: in vivo; details: diet 1 ppm Se, vs selenium deficient
Excerpt: as §6, §7, §8

Cathepsin B = test: Microarray gene expression, mouse cerebral cortex: Cathepsin B; assay type: in vivo; details: diet 1 ppm Se, vs Se-deficient mice, * significant
Excerpt: as §6, §7, §8

[14] = Body weight of mice on selenium diets; assay type: in vivo, mouse; details: diet 1 ppm Se vs selenium deficient diet; FIG. 1
Excerpt: as §6
Experimental diets were created by Harlan Teklad (Madison, Wis.). Selenium content of the diets was determined by Covance Inc. (Madison, Wis.). […]
Thus, it was an object of the present invention to determine whether compositions and methods of the present invention could alter the expression levels (e.g., mRNA levels) of various genes. One group of genes analyzed were genes classically associated with selenium. As described above, the expression levels of genes were analyzed between mice with and without dietary selenium, or, between mice fed different sources of selenium) (See, e.g., Table 1, below).

Cathepsin O = test: Microarray gene expression, mouse cerebral cortex: Cathepsin O; assay type: in vivo; details: diet 1 ppm Se, vs Se-deficient mice, * significant
Excerpt: as §6, §7, §8

Gst mu 7 (Gstm7) = test: Microarray gene expression, mouse cerebral cortex: Gstm7; assay type: in vivo; details: diet 1 ppm Se, vs Se-deficient animals, * significant
Excerpt: as §6, §7, §8

Gadd45b = test: Microarray gene expression, mouse cerebral cortex: Gadd45b; assay type: in vivo; details: diet 1 ppm Se, vs Se-deficient animals, * significant
Excerpt: as §6, §7, §8

SOD1 = test: Microarray gene expression, mouse intestine: SOD1; assay type: in vivo; details: diet 1 ppm Se, vs selenium deficient
Excerpt: as §6, §7, §8

[15] = tested on: Type 1 iodothyronine deiodinase; test: Microarray gene expression, mouse intestine: Type 1 iodothyronine deiodinase; assay type: in vivo; details: diet 1 ppm Se, vs selenium deficient
Excerpt: as §6, §7, §8

Selenoprotein W (SelW) = test: Microarray gene expression, mouse intestine: SelW; assay type: in vivo; details: diet 1 ppm Se, vs selenium deficient
Excerpt: as §6, §7, §8

[16] = tested on: Glutathione S-transferase, theta 2 (Gstt2); test: Microarray gene expression, mouse intestine: Gstt2; assay type: in vivo; details: diet 1 ppm Se, vs Se-deficient diets, negative = down
Excerpt: as §6, §7, §8

[17] = tested on: Gadd45g1p (Growth arrest and DNA-damage inducible 45 gamma interacting protein); test: Microarray gene expression, mouse cerebral cortex: Gadd45g1p; assay type: in vivo; details: diet 1 ppm Se, vs Se-deficient animals, * significant
Excerpt: as §6, §7, §8

Thioredoxin Reductase 1 = test: Microarray gene expression, mouse intestine: Thioredoxin Reductase 1; assay type: in vivo; details: diet 1 ppm Se, vs selenium deficient, p <0.01
Excerpt: as §6, §7, §8

[18] = tested on: Growth arrest and DNA-damage-inducible 45 gamma (Gadd45g); test: Microarray gene expression, mouse intestine: Gadd45g; assay type: in vivo; details: diet 1 ppm Se, vs selenium deficient, negative = down, listed as SS
Excerpt: as §6
Experimental diets were created by Harlan Teklad (Madison, Wis.). Selenium content of the diets was determined by Covance Inc. (Madison, Wis.). Five (5) animals were included in each of the following treatment groups: a diet deficient in selenium (SD); a diet supplemented with selenomethionine (SM, obtained from Sigma, St. Louis, Mo.) such that the final selenium content of the diet was one (1) part per million; a diet supplemented with sodium selenite (SS, Sigma) such that the final concentration of selenium in this diet was one (1) part per million; or a diet supplemented with the yeast selenium SEL-PLEX (SP, Alltech, Lexington, Ky.), such that the final concentration of selenium in this diet was one (1) part per million. SEL-PLEX. Mice were provided with water and their respective diet ad libitum for 100 days. Diets were stored at the dark at 4° C. and fresh diet was added to feeder twice weekly.
Tissue sample preparation and microarray analysis. Mice were killed at 100 days of age by cervical dislocation. For intestinal expression studies, the intestine was flushed twice with saline solution and small intestine was measured and divided in three equal segments. A 3-cm region of the middle segment of the small intestine corresponding to the jejunum (˜300 mg of tissue) was cut and rinsed again with physiological saline to completely remove contents, flash frozen in liquid nitrogen and stored at −80° C. For brain (e.g., cerebral cortex) studies, the cerebral cortex was separated from the surrounding brain tissue and was flash frozen in liquid nitrogen and stored at −80° C. […]

[19] = tested on: Complement component 1, q subcomponent, beta polypeptide, C1qbp; test: Microarray gene expression, mouse cerebral cortex: C1q beta polypeptide; assay type: in vivo; details: diet 1 ppm Se, vs selenium deficient, * p<0.01
Excerpt: as §6, §7, §8

[20] = tested on: Complement component 1, q subcomponent, alpha polypeptide, C1qa; test: Microarray gene expression, mouse cerebral cortex: C1qa; assay type: in vivo; details: diet 1 ppm Se, vs selenium deficient, * p<0.01
Excerpt: as §6, §7, §8

O=[Se](O)O [Selenite]
Hen Brain Se Concentration [1]: 850 ppb
Chick Brain Se Concentration at day 14 [2]: 784 ppb

O=[Se](O)O [Sod-sel, sodium selenite]
FC (fold change) expression of Gstz1 (Gst zeta 1 (Gstz1)): −1.3 fold
FC (fold change) expression of Gstm3 [3]: −2.7 fold
FC (fold change) expression of C1qbp [4]: 1.11 fold
FC (fold change) expression of Gstm1 [5]: −2.4 fold
expression of SelR, fold upregulated (SelR (Selenoprotein X1)): 1.3 fold
fold change in expression of Glutathione Peroxidase 3 (Glutathione Peroxidase 3): 3.5 fold
FC (fold change) expression of Gsta3 [6]: −2.3 fold
FC (fold change) expression of Presenilin 1 (Presenilin 1): −1.11 fold
FC (fold change) expression of Gstm2 [7]: −2.1 fold
FC (fold change) expression of Aplp 1 [8]: −1.55* fold
FC (fold change) expression of Gstp1 (Gst pi 1 (Gstp1)): 1.02 fold
FC (fold change) expression of Cathepsin Z (Cathepsin Z): −1.30* fold
FC (fold change) expression of Cathepsin D (Cathepsin D): −1.24* fold
FC (fold change) expression of Junb (Junb): −1.59 fold
fold change in expression of Glutathione Peroxidase 1 (Glutathione Peroxidase 1): 4.1 fold
FC (fold change) expression of Nicastrin (Nicastrin): −1.67* fold
FC (fold change) expression of Apba1 [9]: −1.41 fold
FC (fold change) expression of Apbb1 (Fe65) [10]: −1.32* fold
FC (fold change) expression of C1r [11]: −1.29 fold
FC (fold change) expression of C1qg [12]: −1.07 fold
enhancement in expression of the Cu chaperone for SOD (CCS), fold [13]: 1.28 fold
FC (fold change) expression of Cathepsin B (Cathepsin B): −1.13* fold
body weights of mice [14]: No significant differences
FC (fold change) expression of Cathepsin O (Cathepsin O): −1.18 fold
FC (fold change) expression of Gstm7 (Gst mu 7 (Gstm7)): −1.25* fold
FC (fold change) expression of Gadd45b in brain (Gadd45b): −1.39* fold
enhanced expression of SOD1, fold (SOD1): 1.92 fold
fold increase of expression level of Type 1 iodothyronine deiodinase [15]: 2.8 fold
expression of Selenoprotein W (SelW), fold upregulated (Selenoprotein W (SelW)): 5.1 fold
FC (fold change) expression of Gstt2 [16]: −1.3 fold
FC (fold change) expression of Gadd45g1p in brain [17]: −1.12 fold
fold increase in expression of the Thioredoxin Reductase 1 gene (Thioredoxin Reductase 1): 1.7 fold
FC (fold change) expression of Gadd45g [18]: −2.0 fold
FC (fold change) expression of complement component 1, q subcomponent, beta polypeptide [19]: −1.35 fold
FC (fold change) expression of C1qa [20]: −1.18 fold
